Reference: patent publication US20230255946A1 (Pure Tech LYT 100, Inc., priority 2020, published 2023)
“Also recorded” adds a separate entry of the source.

How the values were obtained:
L929 cells [1] = experiment: TGF-induced soluble fibronectin synthesis in L929 cells (ELISA); format: cell-based; conditions: 500 µM, in the absence and presence of TGF-β-induction
Text: Fibronectin is another important component of fibrotic lungs as it is induced by TGF-β and functions both as a structural component of extra cellular matrix as well as well as a ligand for integrin receptors. Just like soluble collagen, binding of fibronectin to integrin receptors induces the proliferation of fibroblast and epithelial cells of the lungs.

NASH mice = experiment: NASH mouse model (streptozotocin and high fat diet), liver histology; format: in vivo
Text: Non-alcoholic steatohepatitis (NASH) is characterized by lobular inflammation, hepatocyte ballooning and degeneration progressing to liver fibrosis. […] In addition, nine non-NASH mice were fed with a normal diet and monitored.

[2] = human, in vivo, 48 h
Description: Following screening, eligible healthy volunteer subjects were admitted to a single clinical study site and were randomized to 1 of 2 treatment sequences. […] In each period, a standardized breakfast was provided to subjects prior to administration of study drug (to compare the PK profiles in the clinically relevant fed state) and plasma samples were collected over a 48-hour period after dosing for evaluation of PK. Dosing between the 2 periods was separated by a minimum of 7 days. Subjects completed the study upon completion of the 48-hour post-dose assessments following dosing period 2.
All capsules were identical in size, shape, and external color.

[3] = human, in vivo
Description: All Part 1 cohorts will be dosed every 12 hours with food for 5 days.
During the treatment period (Day 1 through Day 5), participants will be administered their assigned study medication BID, every 12 h ± 0.25 h (with approximately 240 mL of non-carbonated water), 30 minutes after the start of consumption of their standardised breakfast or dinner (12 h apart). A standardised lunch will be served ≥ 4 h post breakfast and ≥ 4 h prior to dinner. An evening snack will be served ≥ 3 h following evening study medication administration. No additional fluids will be allowed during the 1 h pre- and post-doses. On Day 6, subjects will replicate mealtimes as scheduled on Day 1-5.
In Part 1, blood samples (4 mL each) for PK will be collected for Cohorts 1, 2, 3, 4, and 6 at specified times (hours) at each as follows: • Day 1 and Day 5: 0 (pre-dose), 0.5, 1, 1.5, 2, 2.5, 3, 3.5, 4, 6, 8, 12 (pre-dose), 13, 14, 15, 16, 18 h • Day 2, Day 3 and Day 4: 0 (pre-morning-dose) and 12 h (pre-evening-dose) • Day 6: 12, 18, 24 and 36 h post-last dose • Day 7: 48 h (post-last dose)
Pharmacokinetics for Day 1 to 3 in Part 2 (fed state) will be compared to PK for Day 1 to Day 3 in Part 2 (fasted state). Plasma PK parameters (non-compartmental or compartmental analysis as appropriate) will include, but are not limited to: • Following single dose: Tmax, tlag, Cmax, AUC0-4, AUC0-last, t½, AUC0-inf, lambda z, %AUCext, CL/F, Vz/F, Cmax/D, AUC0-last/D, AUC0-inf/D and MRT (D is dose) • After repeated doses: Ctrough, Ctrough/D • Following repeated doses on last day: Tmax, Cmax, Cavg, tlag, t½, AUC0-4, AUC0-last, AUC0-inf, lambda z, %AUCext, CLss/F, Vzss/F, MRT, PTF, Rac(AUC), Rac(Cmax), Cmax/D, AUClast/D, AUC0-inf/D and Rac (accumulation ratio)
All cohorts (n=6 each) were dosed every 12 hours with food for 5 days at either 100, 250, 500, or 750 mg BID. […] Following processing, the samples were analyzed by HPLC on a Phenomenex Luna PFP(2), 3 µm, 50 x 2.0 mm column, and the eluates were monitored by an API4000 MS/MS detector in positive MRM mode. The data were acquired and processed by the data acquisition system Analyst® (Sciex).

[4] = Food Effect Study Part 2 (Cohort 5), single 500 mg dose fed vs fasted; format: in vivo
Description: The comparison will be based on Day 1, Day 2 and Day 3 PK plasma samples after the first dose of study drug on Day 1 under fast and fed conditions of Part 2.
Subjects will be admitted to the CRU on Day -1 and will fast overnight for at least 10 h.
Comparison of the PK parameters in the fed and fasted states will be performed, and analysis of PK by gender may be performed if the data allow.

[5] = MAD study, safety and tolerability (adverse events)
Description: All participants in Part 1 and Part 2 will be monitored for safety (including assessment of chemistry, haematology and urinalysis parameters, electrocardiograms [ECGs], vital signs and adverse events [AEs]) and samples will be collected for assessment of PK at predefined time points pre and post-dose as delineated in the Schedule of Events.
Safety and tolerability will be assessed throughout Part 1, Part 2 and Part 3 of the study by monitoring AEs, physical examination, vital signs, 12-lead ECGs, clinical laboratory values (haematology panel, multiphasic chemistry panel and urinalysis), and review of concomitant treatments/medication use.

L929 cells [6] = experiment: TGF-induced collagen synthesis in L929 cells, 96-well plate format (SIRCOL); format: cell-based; conditions: 500 µM
Description: Five thousand L929 cells were plated in complete DMEN and incubated until confluency for 3 days. Medium was removed and complete DMEM containg Prolin (20 µg/ml) and ascorbic acid (10 µM) was added. […] Cells were further incubated for 72 hrs. Supernatant was removed, 0.5% gluteraldehyde was added for 30 min at RT, removed, washed 3X with ddwater, 0.5 M acetic acid was added for 30 min at RT, removed, washed with water, air dried and 100 µl SIRCOL dye was added for 5 h at RT. Dye was removed, plate was washed extensively under running water, air dried and 200 µl of 0.5 M NaOH was added, plates were shaken at RT for 1 h, and OD was determined at 600 nm.

[7] = test system: mouse tail model of lymphedema; experiment: Mouse tail model of lymphedema; format: in vivo; conditions: 400 mg/kg/day oral gavage once daily, by 5 weeks
L929 cells [8] = experiment: TGF-induced collagen synthesis in L929 cells, 6-wells (SIRCOL); format: cell-based; conditions: 500 µM
Description: 100,000 L929 cells were plated in complete DMEN and incubated until confluency for 3 days. Medium was removed and complete DMEM containg Prolin (20 µg/ml) and ascorbic acid (10 µM) was added. […] Cells were further incubated for 72 hrs. Supernatant was removed, cells were washed with cold PBS, 1 ml SIRCOL reagent was added onto the cells and cells were scraped off, samples were shaken for 5 h.at RT, centrifuged at 10.000 rpm for 5 min, supernatant was removed, pellet was dissolved in 0.5 M acetic acid to remove unbound dye, and re-centrifuged at 10.000 rpm for 5 min, supernatant was removed and final pelet was dissolved in 1 ml 0.5 M NaOH, shaken at RT for 5 h, 100 µl of resulted solution was placed in 96-well and O.D was determined at 600.

L929 cells [9] = experiment: Survival of L929 cells (MTT); format: cell-based; conditions: 500 µM, 72 hrs
Description: Five thousand L929 cells were plated in completed DMEN and incubated until confluency for 3 days. Medium was removed and complete DMEM containg Prolin (20 µg/ml) and ascorbic acid (10 uM) was added. […] 100 µL of medium was removed, 20 µL MTT solution was added for 4 hrs, then 100 µl of DMSO was added, and absorbance of developed dark pink color was determined at […].

L929 cells [10] = experiment: TGF-induced soluble collagen synthesis in L929 cells (ELISA); format: cell-based; conditions: 500 µM
Description: Five thousand L929 cells were plated in complete DMEN and incubated until confluency for 3 days. Medium was removed and complete DMEM containing Prolin (20 µg/ml) and ascorbic acid (10 µM) was added. […] Cells were further incubated for 72 hrs. 200 µl supernatant of 96-well SIRCOL plate was placed onto ELISA plate and incubated O/N. Next day, supernatant was removed and 100 ul of 1%BSA in PBST was added and incubated for 2 h at RT, BSA was removed, plate was washed 3x with 200 µl of PBST, and anti-collagen type I a.b was added at 1:2000 dilution (prepared in %1 BSA in PBST), incubated at RT for 1 h, primary a.b was removed, plate was washed 3x with 200 µl PBST, and secondary anti-goat HRP was added at 1:2000 dilution, incubate at RT for 1 h, removed, plate was washed 3x with 200 µl PBST and 100 µl of TMB solution was added for color development for 15 min, then 100 µl of 2 N H2SO4 was added to stop the reaction and O.D of developed yellow color was determined at 450 nm.

[11] = 200 mg SD-559 (pirfenidone) BID, Huang et al.; in ng/mL; cited from earlier work
[12] = male, Sprague Dawley, rat, in vivo, 28 days
Description: The protocol was amended to add additional TK male animals in Group 6 for Day 1 collection of TK samples at 875 mg/kg.
Blood samples were collected from 3 subsets of 3 animals/sex on Day 1 and Day 28 at predose, 0.25, 0.5, 1, 2, 4, 8 and 24 hours (hr) post-dose for groups 2 to 6 and from one subset of 3 animals/sex at 0.25 hr post-dose for the vehicle group (group 1). […] Non-compartmental analysis (NCA) of plasma concentration data was conducted using Phoenix® WinNonlin®, version 8.0.

[2H]C([2H])([2H])c1ccc(=O)n(-c2ccccc2)c1 [LYT-100, deupirfenidone]
soluble fibronectin levels (L929 cells [1]): signficantly reduced
Fibrosis Area (%) (NASH mice; 30 mg/kg twice daily oral, 6-9 weeks of age, n=8, mean ± SD, p<0.01 vs Vehicle): 0.64 ± 0.31 %
fibrosis area compared to the vehicle group (NASH mice; Sirius-red stained liver sections): significant reduction
number of animals with Steatosis score 0 (NASH mice; score 0 = <5%, n=8): 4
number of animals with Steatosis score 1 (NASH mice; score 1 = 5-33%, n=8): 3
number of animals with Lobular Inflammation score 1 (NASH mice; score 1 = <2 foci/200x, n=8): 5
number of animals with Lobular Inflammation score 2 (NASH mice; score 2 = 2-4 foci/200x, n=8): 3
number of animals with Steatosis score 2 (NASH mice; score 2 = >33%-66%, n=8): 1
number of animals with Hepatocyte ballooning score 2 (NASH mice; score 2 = Many cells/prominent ballooning, n=8): 8
tolerability of single doses [2]: well tolerated
dose dependence of AUC96-108 [3]: linear dose proportionality
AUC, % Change Fed vs Fasted ([4]; LYT-100 @500 mg single dose): -19%
Cmax, % Change Fed vs Fasted ([4]; LYT-100 @500 mg single dose): -23%
Tmax, % Change Fed vs Fasted ([4]; LYT-100 @500 mg single dose): +25%
tolerability with or without food ([4]; single dose of 500 mg): no evidence of any tolerability concerns
abdominal discomfort, AE across all cohorts [5]: 6.7%
abdominal distension, AE across all cohorts [5]: 10%
headache, AE across all cohorts [5]: 23.3%
nausea, AE across all cohorts [5]: 10%
Abdominal Distension, incidence of TEAE ([5]; 100 mg BID, N=6): 0 n (%)
Abdominal discomfort, incidence of TEAE ([5]; 100 mg BID, N=6): 0 n (%)
Back pain, incidence of TEAE ([5]; 100 mg BID, N=6): 1 (16.7%) n (%)
Dysmenorrhoea, incidence of TEAE ([5]; 100 mg BID, N=6): 0 n (%)
Headache, incidence of TEAE ([5]; 100 mg BID, N=6): 1 (16.7%) n (%)
Nausea, incidence of TEAE ([5]; 100 mg BID, N=6): 0 n (%)
Peripheral swelling, incidence of TEAE ([5]; 100 mg BID, N=6): 0 n (%)
Presyncope, incidence of TEAE ([5]; 100 mg BID, N=6): 0 n (%)
tolerability ([5]; 100 mg up through 1000 mg BID over 5 days): well-tolerated
Abdominal Distension, incidence of TEAE ([5]; 250 mg BID, N=6): 3 (50.0%) n (%)
Abdominal discomfort, incidence of TEAE ([5]; 250 mg BID, N=6): 0 n (%)
Back pain, incidence of TEAE ([5]; 250 mg BID, N=6): 0 n (%)
Dysmenorrhoea, incidence of TEAE ([5]; 250 mg BID, N=6): 2 (33.3%) n (%)
Headache, incidence of TEAE ([5]; 250 mg BID, N=6): 2 (33.3%) n (%)
Nausea, incidence of TEAE ([5]; 250 mg BID, N=6): 2 (33.3%) n (%)
Peripheral swelling, incidence of TEAE ([5]; 250 mg BID, N=6): 1 (16.7%) n (%)
Presyncope, incidence of TEAE ([5]; 250 mg BID, N=6): 1 (16.7%) n (%)
Abdominal Distension, incidence of TEAE ([5]; 500 mg BID, N=6): 0 n (%)
Abdominal discomfort, incidence of TEAE ([5]; 500 mg BID, N=6): 0 n (%)
Back pain, incidence of TEAE ([5]; 500 mg BID, N=6): 2 (33.3%) n (%)
Dysmenorrhoea, incidence of TEAE ([5]; 500 mg BID, N=6): 0 n (%)
Headache, incidence of TEAE ([5]; 500 mg BID, N=6): 2 (33.3%) n (%)
Nausea, incidence of TEAE ([5]; 500 mg BID, N=6): 1 (16.7%) n (%)
Peripheral swelling, incidence of TEAE ([5]; 500 mg BID, N=6): 0 n (%)
Presyncope, incidence of TEAE ([5]; 500 mg BID, N=6): 0 n (%)
Abdominal Distension, incidence of TEAE ([5]; 750 mg BID, N=6): 0 n (%)
Abdominal discomfort, incidence of TEAE ([5]; 750 mg BID, N=6): 2 (33.3%) n (%)
Back pain, incidence of TEAE ([5]; 750 mg BID, N=6): 0 n (%)
Dysmenorrhoea, incidence of TEAE ([5]; 750 mg BID, N=6): 0 n (%)
Headache, incidence of TEAE ([5]; 750 mg BID, N=6): 2 (33.3%) n (%)
Nausea, incidence of TEAE ([5]; 750 mg BID, N=6): 1 (16.7%) n (%)
Peripheral swelling, incidence of TEAE ([5]; 750 mg BID, N=6): 0 n (%)
Presyncope, incidence of TEAE ([5]; 750 mg BID, N=6): 0 n (%)
Abdominal Distension, incidence of TEAE ([5]; 1000 mg BID, N=6): 1 (16.7%) n (%)
Abdominal discomfort, incidence of TEAE ([5]; 1000 mg BID, N=6): 0 n (%)
Back pain, incidence of TEAE ([5]; 1000 mg BID, N=6): 0 n (%)
Dysmenorrhoea, incidence of TEAE ([5]; 1000 mg BID, N=6): 0 n (%)
Headache, incidence of TEAE ([5]; 1000 mg BID, N=6): 2 (33.3%) n (%)
Nausea, incidence of TEAE ([5]; 1000 mg BID, N=6): 0 n (%)
Peripheral swelling, incidence of TEAE ([5]; 1000 mg BID, N=6): 1 (16.7%) n (%)
Presyncope, incidence of TEAE ([5]; 1000 mg BID, N=6): 1 (16.7%) n (%)
participants with TEAEs considered at least possibly treatment-related ([5]; 15 of 30 participants treated with LYT-100): 50.0%
dose-limiting toxicities ([5]; 100 to 1000 mg BID, 5 days): No dose-limiting toxicities were observed
maximum tolerated dose ([5]; 100 to 1000 mg BID, 5 days): No maximum tolerated dose was reached; also recorded: no maximally tolerated dose was reached
severity of adverse events at all doses ([5]; MAD study): mild and transient
Abdominal Distension, incidence of TEAE ([5]; Overall LYT-100, N=30): 4 (13.3%) n (%)
Abdominal discomfort, incidence of TEAE ([5]; Overall LYT-100, N=30): 2 (6.7%) n (%)
Back pain, incidence of TEAE ([5]; Overall LYT-100, N=30): 3 (10.0%) n (%)
Dysmenorrhoea, incidence of TEAE ([5]; Overall LYT-100, N=30): 2 (6.7%) n (%)
Headache, incidence of TEAE ([5]; Overall LYT-100, N=30): 9 (30.0%) n (%)
Nausea, incidence of TEAE ([5]; Overall LYT-100, N=30): 4 (13.3%) n (%)
Peripheral swelling, incidence of TEAE ([5]; Overall LYT-100, N=30): 2 (6.7%) n (%)
Presyncope, incidence of TEAE ([5]; Overall LYT-100, N=30): 2 (6.7%) n (%)
total collagen level in the absence of TGF-β induction (L929 cells [6]): signficantly inhibited or reduced
TGF-β-induced total collagen levels (L929 cells [6]; TGF-β 5 ng/ml, 72 hrs): significanly inhibited or reduced
swelling (tail volume) as compared to carboxymethylcellulose control [7]: significantly reduced swelling
collagen synthesis in the absence of added TGF-β (L929 cells [8]): significantly inhibits
TGF-induced collagen synthesis (L929 cells [8]; TGF-β 5 ng/ml, 72 hrs): inhibits
survival of L929 cells (L929 cells [9]): does not affect survival
soluble collagen levels in the absence of TGF-β-induction (L929 cells [10]): signficantly reduced
TGF-β-induced soluble collagen levels (L929 cells [10]; TGF-β 5 ng/ml, 72 hrs): significantly inhibits

O=C(O)c1ccc(=O)n(-c2ccccc2)c1 [LYT-105, 5-carboxy-pirfenidone]
average ratio of metabolite to the parent (M/P) by AUC [3]: 0.45
dose dependence of AUC96-108 [3]: linear dose proportionality
change in Cmax, AUC, fed vs fasted ([4]; 5-carboxypirfenidone after LYT-100 500 mg): < 5%
observed Cmax [11]: 1476
exposure in rats relative to humans [12]: ~7 fold
